According to US4081434A, “Novel analogs of β-endorphin” (Hoffmann-La Roche Inc., priority 1977, dated 1978):
Ends that are not written are not given here.

The compounds below were run on guinea pig ileum (assay: guinea pig ileum bioassay of Kosterlitz et al. (opiate agonist activity)). Settings: guinea pig ileum assay for opiate agonist activity.
Type: cell-based
Excerpt: Thus, for example, in the guinea pig ileum bioassay of Kosterlitz et al. Brit. J. Pharmacol. 39, 398 (1970) the IC50 (50% inhibiting concentration) of representative β-endorphins and the relative potency of β-endorphin fragments are as follows.
In the case of “YGGFMTLFKNAIIKNAYKKGE [βh-endorphin-(1-5)-(16-31), H--tyr--Gly--Gly--Phe--Met--Thr--Leu--Phe--Lys--Asn--Ala--Ile--Ile--Lys--Asn--Ala--Tyr--Lys--Lys--Gly--Glu--OH]”, the “more potent than parent compound βh -endorphin” value is reported as “about 35%”.

Same assay, conditions: guinea pig ileum bioassay; βh and βc -endorphin = 1.00
For met-enkephalin, the relative potency was 0.26.
“YGGFMTLFKNAIIKNAYKKGE [βh-endorphin-(1-5)-(16-31), H--tyr--Gly--Gly--Phe--Met--Thr--Leu--Phe--Lys--Asn--Ala--Ile--Ile--Lys--Asn--Ala--Tyr--Lys--Lys--Gly--Glu--OH]” showed a relative potency of 1.35.
With “βc -endorphin-(20-31): fragment 20-31 of camel β-endorphin (NAIIKNAHKKGQ; Beta-endorphin; UniProt P01203 20-31, looked up, fragment)” the relative potency was 0.001.
`CC[C@H](C)[C@H](NC(=O)[C@H](C)NC(=O)[C@H](CC(N)=O)NC(=O)[C@H](CCCCN)NC(=O)[C@H](Cc1ccccc1)NC(=O)[C@H](CC(C)C)NC(=O)[C@@H](NC(=O)[C@@H](NC(=O)[C@H](CC(C)C)NC(=O)[C@@H]1CCCN1C(=O)[C@@H](NC(=O)[C@H](CCC(N)=O)NC(=O)[C@H](CO)NC(=O)[C@H](CCCCN)NC(=O)[C@H](CCC(=O)O)NC(=O)[C@H](CO)NC(=O)[C@@H](NC(=O)[C@H](CCSC)NC(=O)[C@H](Cc1ccccc1)NC(=O)CNC(=O)CNC(=O)[C@@H](N)Cc1ccc(O)cc1)[C@@H](C)O)[C@@H](C)O)C(C)C)[C@@H](C)O)C(=O)N[C@H](C(=O)N[C@@H](CCCCN)C(=O)N[C@@H](CC(N)=O)C(=O)N[C@@H](C)C(=O)N[C@@H](Cc1ccc(O)cc1)C(=O)N[C@@H](CCCCN)C(=O)N[C@@H](CCCCN)C(=O)NCC(=O)N[C@@H](CCC(=O)O)C(=O)O)[C@@H](C)CC` [βh -endorphin] was tested, and the relative potency was 1.00.
“βc -endorphin-(6-31): fragment 6-31 of camel β-endorphin (TSEKSQTPLVTLFKNAIIKNAHKKGQ; Beta-endorphin; UniProt P01203 6-31, looked up, fragment)” showed a relative potency of 0.04.
Compound “YGGFMTSEKSQTPLVTLFKNAIIKNAHKKGQ [βc -endorphin]” has a relative potency of 1.00.
